Among the data in patent US7074789B2, “Kinase inhibitors” (Amgen Inc., priority 1999, dated 2006) are IC50 values, retold here.

Molecules are shown by their SMILES. Some results are limits rather than exact numbers.

Holding throughout (assay type): biochemical
Experiment [1] concerns the target T1, EGFR (Homo sapiens, UniProt P00533).
T1 construct: Kinases are expressed as either kinase domains or full length constructs; made in house
Briefly: Kinase inhibition assay (33P transfer), EGFR. The conditions noted are these: Table 2, kinase inhibition class; read-out: EGFR-1. The method in brief:
(§1)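 Using immobilised substrate copolymers (poly(Glu,Tyr) 4:1; poly(Arg,Ser) 3:1) and [33P]ATP, purified fusion kinases were allowed to react; plates were then rinsed in 0.5% phosphoric acid and counted in a scintillation detector. Half-maximal inhibition of label transfer defines IC50.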

Experiment [2] deals with T2, PDGFRB (Homo sapiens, UniProt P09619).
T2 construct: Kinases are expressed as either kinase domains or full length constructs; made in house
Briefly: Kinase inhibition assay (33P transfer), PDGFRB. The conditions noted are these: read-out: PDGFRB-1.

Experiment [3] addresses T3, Itk (Homo sapiens, UniProt Q08881).
T3 construct: Kinases are expressed as either kinase domains or full length constructs; made in house
T3 sequence (Q08881 1-620): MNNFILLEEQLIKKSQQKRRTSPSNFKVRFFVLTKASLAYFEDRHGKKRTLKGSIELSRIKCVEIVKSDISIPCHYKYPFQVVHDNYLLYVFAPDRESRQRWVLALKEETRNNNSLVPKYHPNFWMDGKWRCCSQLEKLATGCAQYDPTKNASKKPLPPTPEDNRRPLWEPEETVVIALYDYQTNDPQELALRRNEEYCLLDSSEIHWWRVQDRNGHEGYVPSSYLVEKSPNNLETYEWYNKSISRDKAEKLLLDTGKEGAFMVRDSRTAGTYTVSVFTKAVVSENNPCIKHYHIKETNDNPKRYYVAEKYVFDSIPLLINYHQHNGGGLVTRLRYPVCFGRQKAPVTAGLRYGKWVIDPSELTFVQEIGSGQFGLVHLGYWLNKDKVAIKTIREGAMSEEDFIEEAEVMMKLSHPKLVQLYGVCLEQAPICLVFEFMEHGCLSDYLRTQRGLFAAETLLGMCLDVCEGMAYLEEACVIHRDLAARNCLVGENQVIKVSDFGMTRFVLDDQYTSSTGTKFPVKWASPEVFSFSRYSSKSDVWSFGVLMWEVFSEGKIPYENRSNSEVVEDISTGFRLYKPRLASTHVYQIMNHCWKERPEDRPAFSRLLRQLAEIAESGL
The experiment in a line: Kinase inhibition assay (33P transfer), Itk. The conditions noted are these: read-out: Itk-1. An outline of the steps:
as §1

The target of experiment [4] is T4, Kdr (Homo sapiens, UniProt P35968).
T4 construct: Kinases are expressed as either kinase domains or full length constructs; made in house
The experiment in a line: Kinase inhibition assay (33P transfer), Kdr. The conditions noted are these: read-out: KDR-1. An outline of the steps: (§2)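 Recombinant kinase-domain or full-length fusion proteins (GST or His tag) served as enzyme. Substrate poly(Glu,Tyr) 4:1 or poly(Arg,Ser) 3:1 was bound to the plate; transferred 33P was read by liquid scintillation following acid washing.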

Experiment [5] has as its target T5, IGFR-1 (Homo sapiens, UniProt P08069).
T5 construct: Kinases are expressed as either kinase domains or full length constructs; made in house
The experiment in a line: Kinase inhibition assay, IGFR-1 (Table 2). The following applies: Table 2, kinase inhibition class.

In experiment [6] the target is T6, Zap-70 (Homo sapiens, UniProt P43403).
T6 construct: Kinases are expressed as either kinase domains or full length constructs; made in house
T6 sequence (P43403 1-619): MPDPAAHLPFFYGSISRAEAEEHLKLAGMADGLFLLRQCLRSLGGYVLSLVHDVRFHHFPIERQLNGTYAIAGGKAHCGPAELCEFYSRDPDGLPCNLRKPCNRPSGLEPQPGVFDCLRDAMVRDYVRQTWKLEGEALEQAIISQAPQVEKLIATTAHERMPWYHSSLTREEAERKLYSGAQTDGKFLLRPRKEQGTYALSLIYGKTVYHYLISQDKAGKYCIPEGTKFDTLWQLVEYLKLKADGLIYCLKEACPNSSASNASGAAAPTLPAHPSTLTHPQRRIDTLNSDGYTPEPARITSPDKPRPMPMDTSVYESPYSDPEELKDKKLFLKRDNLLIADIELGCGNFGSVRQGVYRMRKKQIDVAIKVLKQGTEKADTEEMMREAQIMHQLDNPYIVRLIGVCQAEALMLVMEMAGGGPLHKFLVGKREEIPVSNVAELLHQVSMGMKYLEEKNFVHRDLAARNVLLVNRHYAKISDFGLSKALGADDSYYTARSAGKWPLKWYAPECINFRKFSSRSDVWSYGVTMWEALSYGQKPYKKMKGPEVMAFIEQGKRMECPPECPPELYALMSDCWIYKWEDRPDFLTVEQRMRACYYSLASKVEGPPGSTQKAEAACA
Briefly: Kinase inhibition assay (33P transfer), Zap-70. The conditions noted are these: read-out: Zap-1. An outline of the steps:
as §2

Experiment [7] deals with T7, c-Met (Homo sapiens, UniProt P08581).
T7 construct: Kinases are expressed as either kinase domains or full length constructs; made in house
Briefly: Kinase inhibition assay (33P transfer), c-Met. The following applies: Table 2, kinase inhibition class; read-out: Met-1. An outline of the steps:
as §1

Experiment [8] deals with T8, ErbB2 (Homo sapiens, UniProt P04626).
T8 construct: Kinases are expressed as either kinase domains or full length constructs; made in house
T8 sequence (P04626 23-1255, species assumed): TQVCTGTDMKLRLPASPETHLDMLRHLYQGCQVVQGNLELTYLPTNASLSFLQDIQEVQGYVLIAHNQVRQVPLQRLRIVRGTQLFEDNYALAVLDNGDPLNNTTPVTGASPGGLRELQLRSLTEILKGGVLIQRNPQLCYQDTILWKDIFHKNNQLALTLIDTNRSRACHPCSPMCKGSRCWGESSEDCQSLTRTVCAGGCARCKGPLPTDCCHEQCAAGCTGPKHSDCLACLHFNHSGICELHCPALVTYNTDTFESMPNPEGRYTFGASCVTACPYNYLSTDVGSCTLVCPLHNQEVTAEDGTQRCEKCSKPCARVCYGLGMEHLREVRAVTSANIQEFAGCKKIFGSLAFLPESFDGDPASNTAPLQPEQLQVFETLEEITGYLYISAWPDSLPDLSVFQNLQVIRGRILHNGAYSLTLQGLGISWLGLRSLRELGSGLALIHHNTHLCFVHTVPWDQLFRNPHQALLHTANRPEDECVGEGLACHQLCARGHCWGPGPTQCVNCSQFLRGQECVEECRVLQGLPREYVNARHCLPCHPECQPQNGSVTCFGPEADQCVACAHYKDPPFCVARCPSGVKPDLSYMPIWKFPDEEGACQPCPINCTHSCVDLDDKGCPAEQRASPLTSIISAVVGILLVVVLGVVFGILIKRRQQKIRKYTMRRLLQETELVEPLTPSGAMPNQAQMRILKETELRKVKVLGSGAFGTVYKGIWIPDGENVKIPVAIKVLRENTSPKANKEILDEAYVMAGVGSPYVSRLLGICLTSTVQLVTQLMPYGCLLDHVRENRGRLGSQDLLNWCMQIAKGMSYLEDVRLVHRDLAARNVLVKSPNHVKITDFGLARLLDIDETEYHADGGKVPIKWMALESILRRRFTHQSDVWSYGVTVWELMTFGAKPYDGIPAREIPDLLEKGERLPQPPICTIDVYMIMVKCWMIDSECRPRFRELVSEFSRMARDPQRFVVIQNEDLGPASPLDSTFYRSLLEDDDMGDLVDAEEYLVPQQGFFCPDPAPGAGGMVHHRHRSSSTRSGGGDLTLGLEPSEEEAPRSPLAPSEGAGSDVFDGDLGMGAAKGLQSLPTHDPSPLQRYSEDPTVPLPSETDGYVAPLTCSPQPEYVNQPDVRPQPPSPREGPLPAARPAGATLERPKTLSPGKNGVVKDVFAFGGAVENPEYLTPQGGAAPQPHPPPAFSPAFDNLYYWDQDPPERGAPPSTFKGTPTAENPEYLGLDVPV
Briefly: Kinase inhibition assay (33P transfer), ErbB2. The following applies: read-out: ErbB2-2. From the text: The inhibitor compounds described herein are screened in the following manner. Kinases suitable for use in the following protocol to determine kinase activity of the compounds described herein include, -but are not limited to: Lck, Lyn, Src, Fyn, Syk, Zap-70, Itk, Tec, Btk, EGFR, ErbB2, Kdr, Flt-1, Flt-3, Tek, c-Met, InsR, and AKT.
Kinases are expressed as either kinase domains or full length constructs fused to glutathione S-transferase (GST) or polyHistidine tagged fusion proteins in either E. colior Baculovirus-High Five expression systems. They are purified to near homogeneity by affinity chromatography essentially as previously described (Lehr et al., 1996; Gish et al., 1995). In some instances, kinases are co-expressed or mixed with purified or partially purified regulatory polypeptides prior to measurement of activity.
Kinase activity and inhibition are measured essentially by established protocols (Braunwalder et al., 1996). Briefly, The transfer of ^33PO4 from ATP to the synthetic substrates poly(Glu, Tyr) 4:1 or poly(Arg, Ser) 3:1 attached to the bioactive surface of microtiter plates serves as the basis to evaluate enzyme activity. After an incubation period, the amount of phosphate transferred is measured by first washing the plate with 0.5% phosphoric acid, adding liquid scintillant, and then counting in a liquid scintillation detector. The IC50 is determined by the concentration of compound that causes a 50% reduction in the amount of […] incorporated onto the substrate bound to the plate.

Experiment [9] deals with T9, Lck (Homo sapiens, UniProt P06239).
T9 construct: Kinases are expressed as either kinase domains or full length constructs; made in house
T9 sequence (P06239 whole entry, species assumed, the tested form may be a part): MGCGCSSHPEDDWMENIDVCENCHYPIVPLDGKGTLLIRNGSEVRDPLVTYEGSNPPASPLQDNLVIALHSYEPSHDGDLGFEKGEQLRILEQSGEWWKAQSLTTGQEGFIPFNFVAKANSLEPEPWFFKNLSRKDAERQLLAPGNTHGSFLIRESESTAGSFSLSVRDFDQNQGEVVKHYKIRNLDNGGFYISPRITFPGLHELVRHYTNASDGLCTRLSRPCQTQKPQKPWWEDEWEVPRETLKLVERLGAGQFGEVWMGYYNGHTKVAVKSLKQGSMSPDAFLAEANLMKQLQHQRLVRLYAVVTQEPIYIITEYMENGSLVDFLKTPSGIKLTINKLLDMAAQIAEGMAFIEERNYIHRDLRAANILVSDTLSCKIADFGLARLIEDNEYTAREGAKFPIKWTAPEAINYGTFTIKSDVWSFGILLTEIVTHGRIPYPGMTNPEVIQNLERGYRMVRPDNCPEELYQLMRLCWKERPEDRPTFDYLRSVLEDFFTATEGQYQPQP
The experiment in a line: Kinase inhibition assay (33P transfer), Lck. The following applies: read-out: Lck-1. The method in brief:
as §2

Experiment [10] addresses T10, AKT (Homo sapiens, UniProt Q9Y243).
T10 construct: Kinases are expressed as either kinase domains or full length constructs; made in house
The experiment in a line: Kinase inhibition assay (33P transfer), AKT. The conditions noted are these: Table 2, kinase inhibition class; read-out: AKT3-1. The method in brief:
as §2

T1 sequence (P00533 25-1210, species assumed): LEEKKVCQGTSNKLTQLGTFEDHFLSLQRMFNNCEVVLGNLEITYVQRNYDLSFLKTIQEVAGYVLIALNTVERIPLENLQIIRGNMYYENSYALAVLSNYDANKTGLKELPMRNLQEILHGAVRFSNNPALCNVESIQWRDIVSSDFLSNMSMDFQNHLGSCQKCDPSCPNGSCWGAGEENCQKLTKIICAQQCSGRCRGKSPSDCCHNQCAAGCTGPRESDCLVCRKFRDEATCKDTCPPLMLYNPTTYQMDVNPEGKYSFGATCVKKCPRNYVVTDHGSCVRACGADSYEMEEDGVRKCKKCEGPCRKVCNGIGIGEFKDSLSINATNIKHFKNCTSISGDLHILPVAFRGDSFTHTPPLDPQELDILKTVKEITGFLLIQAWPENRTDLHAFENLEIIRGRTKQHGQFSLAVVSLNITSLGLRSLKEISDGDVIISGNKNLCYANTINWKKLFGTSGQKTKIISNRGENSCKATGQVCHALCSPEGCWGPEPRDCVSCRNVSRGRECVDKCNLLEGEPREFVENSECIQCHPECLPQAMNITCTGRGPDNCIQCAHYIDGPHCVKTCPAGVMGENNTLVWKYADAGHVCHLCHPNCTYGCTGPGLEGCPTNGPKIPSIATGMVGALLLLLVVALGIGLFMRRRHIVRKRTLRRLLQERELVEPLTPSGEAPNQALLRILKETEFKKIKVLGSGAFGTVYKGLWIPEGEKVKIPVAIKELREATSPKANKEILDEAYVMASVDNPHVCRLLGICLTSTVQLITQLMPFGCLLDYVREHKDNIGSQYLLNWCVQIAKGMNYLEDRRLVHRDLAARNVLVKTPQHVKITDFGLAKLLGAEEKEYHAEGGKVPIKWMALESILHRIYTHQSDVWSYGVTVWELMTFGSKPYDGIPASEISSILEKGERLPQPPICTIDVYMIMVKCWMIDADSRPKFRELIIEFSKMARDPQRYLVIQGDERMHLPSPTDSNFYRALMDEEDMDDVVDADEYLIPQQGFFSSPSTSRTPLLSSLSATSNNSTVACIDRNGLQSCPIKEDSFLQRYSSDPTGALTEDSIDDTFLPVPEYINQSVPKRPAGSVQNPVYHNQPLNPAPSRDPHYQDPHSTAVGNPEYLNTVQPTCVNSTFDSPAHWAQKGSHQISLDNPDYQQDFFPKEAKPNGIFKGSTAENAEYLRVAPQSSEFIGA
T5 sequence (P08069 31-1367): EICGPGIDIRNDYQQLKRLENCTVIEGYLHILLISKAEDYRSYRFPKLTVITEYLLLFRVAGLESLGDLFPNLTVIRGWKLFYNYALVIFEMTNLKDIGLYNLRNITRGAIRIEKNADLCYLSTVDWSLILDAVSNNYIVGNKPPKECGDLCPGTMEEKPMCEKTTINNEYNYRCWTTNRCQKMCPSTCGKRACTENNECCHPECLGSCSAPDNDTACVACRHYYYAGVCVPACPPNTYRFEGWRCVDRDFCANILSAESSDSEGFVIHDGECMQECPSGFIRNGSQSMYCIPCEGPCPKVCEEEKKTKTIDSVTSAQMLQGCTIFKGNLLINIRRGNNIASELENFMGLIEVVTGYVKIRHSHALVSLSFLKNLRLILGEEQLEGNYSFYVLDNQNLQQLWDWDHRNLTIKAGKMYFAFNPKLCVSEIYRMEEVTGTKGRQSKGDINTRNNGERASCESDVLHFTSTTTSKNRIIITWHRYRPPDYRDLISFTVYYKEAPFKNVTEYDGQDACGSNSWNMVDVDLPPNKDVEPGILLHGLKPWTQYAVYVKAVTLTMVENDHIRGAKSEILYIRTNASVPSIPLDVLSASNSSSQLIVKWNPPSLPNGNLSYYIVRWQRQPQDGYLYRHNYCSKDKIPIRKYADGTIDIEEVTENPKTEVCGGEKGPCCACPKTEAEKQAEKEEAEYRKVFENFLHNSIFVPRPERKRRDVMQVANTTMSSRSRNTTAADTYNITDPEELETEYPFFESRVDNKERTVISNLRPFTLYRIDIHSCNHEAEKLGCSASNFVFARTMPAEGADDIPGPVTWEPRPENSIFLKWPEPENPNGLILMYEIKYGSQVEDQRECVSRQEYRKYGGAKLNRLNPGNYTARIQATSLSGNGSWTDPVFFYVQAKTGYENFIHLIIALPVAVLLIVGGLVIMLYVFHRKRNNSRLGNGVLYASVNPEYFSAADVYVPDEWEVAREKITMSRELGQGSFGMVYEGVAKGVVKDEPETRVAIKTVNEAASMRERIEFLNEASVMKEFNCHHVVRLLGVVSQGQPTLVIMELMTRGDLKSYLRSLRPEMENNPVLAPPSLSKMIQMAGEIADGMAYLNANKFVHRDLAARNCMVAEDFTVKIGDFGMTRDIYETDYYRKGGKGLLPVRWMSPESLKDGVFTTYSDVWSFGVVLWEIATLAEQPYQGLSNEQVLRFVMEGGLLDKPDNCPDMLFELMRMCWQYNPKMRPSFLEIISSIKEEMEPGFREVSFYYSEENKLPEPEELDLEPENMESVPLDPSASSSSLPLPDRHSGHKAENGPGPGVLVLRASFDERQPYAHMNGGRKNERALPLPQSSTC
T10 sequence (Q9Y243 whole entry, the tested form may be a part): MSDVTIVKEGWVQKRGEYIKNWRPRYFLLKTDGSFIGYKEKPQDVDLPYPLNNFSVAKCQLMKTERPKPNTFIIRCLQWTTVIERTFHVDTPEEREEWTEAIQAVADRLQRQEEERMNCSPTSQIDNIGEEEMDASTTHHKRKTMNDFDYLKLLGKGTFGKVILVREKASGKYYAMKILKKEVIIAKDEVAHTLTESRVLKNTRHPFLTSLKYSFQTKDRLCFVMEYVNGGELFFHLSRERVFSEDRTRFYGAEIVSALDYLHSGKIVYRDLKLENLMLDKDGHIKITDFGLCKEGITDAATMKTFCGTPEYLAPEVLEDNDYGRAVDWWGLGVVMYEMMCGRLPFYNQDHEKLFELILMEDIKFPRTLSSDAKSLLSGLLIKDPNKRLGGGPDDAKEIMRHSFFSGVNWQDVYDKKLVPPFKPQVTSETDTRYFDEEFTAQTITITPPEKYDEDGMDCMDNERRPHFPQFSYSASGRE

In the case of `COc1cc(Nc2ncnc(-n3c(NCc4cccc([N+](=O)[O-])c4)nc4ccccc43)n2)cc(OC)c1OC` [Compound 572], the IC50 in [1] is above 8.51 µM; in [2] it was below 0.757 µM; in experiment [3] it was above 8.51 µM; in experiment [4], below 0.757 µM; in experiment [5] it was above 8.51 µM; in experiment [6] it was above 8.51 µM. The IC50 in experiment [7] is 6.62 to 8.51 µM; in experiment [8], 6.62 to 8.51 µM; in experiment [9], 0.757 to 4.54 µM; in experiment [10], above 8.51 µM.
Regarding `COc1cc(Nc2ncnc(-n3c(NCc4ccc(OC(F)(F)F)cc4)nc4ccccc43)n2)cc(OC)c1OC` [Compound 571], the IC50 in experiment [1], in experiment [2], in experiment [3], in experiment [4], in experiment [5] and in experiment [6] was above 7.93 µM in each case. In addition, the IC50 in experiment [7] is 6.17 to 7.93 µM; in experiment [8] it was 4.23 to 6.17 µM; in [9], above 7.93 µM; in experiment [10] it was above 7.93 µM.
Consider `Cc1ccc2c(c1)CCCN2c1ncnc(NCC2CCCO2)n1` (stereo not drawn) [Compound 759], for which the IC50 in [1], in [2], in [3], in experiment [4], in experiment [5] and in [6] was above 13.8 µM throughout. Further, the IC50 in experiment [7], in experiment [8], in [9] and in experiment [10] was above 13.8 µM throughout.
On to `COc1cc(Nc2ncnc(Nc3cccc(CC(=O)O)c3)n2)cc(OC)c1OC` [Compound 624], for which the IC50 in experiment [1] was below 0.972 µM; in experiment [2], 0.972 to 5.83 µM; in experiment [3] it was above 10.9 µM; in experiment [4], 5.83 to 8.51 µM; in experiment [5], above 10.9 µM; in experiment [6], above 10.9 µM. In addition, the IC50 in experiment [7] is above 10.9 µM; in [8], below 0.972 µM; in experiment [9] it was 0.972 to 5.83 µM; in [10], above 10.9 µM.
As to `CN(c1cccc(Cl)c1)c1ncnc(Nc2ccncc2)n1` [Compound 756], the IC50 is below 1.28 µM in experiment [1]; 1.28 to 7.67 µM in experiment [2]; above 14.4 µM in [3]; above 14.4 µM in experiment [4]; above 14.4 µM in experiment [5]; above 14.4 µM in [6]. Further, the IC50 in experiment [7] is 1.28 to 7.67 µM; in experiment [8], above 14.4 µM; in experiment [9] it was 1.28 to 7.67 µM; in experiment [10] it was above 14.4 µM.
On to `CN(c1cccc(Cl)c1)c1ncnc(NCC2CCCO2)n1` (stereo not drawn) [Compound 739], for which the IC50 in [1] is 1.25 to 7.5 µM; in experiment [2] it was above 14.1 µM; in [3], above 14.1 µM; in [4] it was above 14.1 µM; in [5], above 14.1 µM; in experiment [6], above 14.1 µM. Moreover, the IC50 in [7], in experiment [8], in experiment [9] and in experiment [10] was above 14.1 µM each time.
Consider `COc1ccc(CCNc2ncnc(N3CCCc4cc(C)ccc43)n2)cc1OC` [Compound 771], for which the IC50 in experiment [1] is above 11.1 µM; in [2], above 11.1 µM; in experiment [3] it was above 11.1 µM; in experiment [4], 5.92 to 8.63 µM; in [5] it was above 11.1 µM; in experiment [6] it was above 11.1 µM. For the same compound, the IC50 in [7], in experiment [8], in experiment [9] and in [10] was above 11.1 µM each time.
For `CCN(CC)CCNc1ncnc(N(C)c2cccc(Cl)c2)n1` [Compound 745], the IC50 was 1.19 to 7.17 µM in [1]; above 13.4 µM in experiment [2]; above 13.4 µM in experiment [3]; above 13.4 µM in experiment [4]; above 13.4 µM in [5]; above 13.4 µM in experiment [6]. The IC50 in [7], in experiment [8], in [9] and in experiment [10] was above 13.4 µM each time.
As for `COc1ccc(-c2cc(Nc3ncnc(Nc4ccc(CC(N)=O)cc4)n3)[nH]n2)cc1` [Compound 576], the IC50 in experiment [1] is 0.961 to 5.76 µM; in experiment [2] it was above 10.8 µM; in experiment [3], 0.961 to 5.76 µM; in [4] it was below 0.961 µM; in experiment [5] it was below 0.961 µM; in experiment [6], above 10.8 µM. Moreover, the IC50 was below 0.961 µM in experiment [7], above 10.8 µM in [8], below 0.961 µM in [9] and above 10.8 µM in experiment [10].
Turning to `COc1cc(Nc2ncnc(-n3c(Nc4ccccc4C(C)C)nc4ccccc43)n2)cc(OC)c1OC` [Compound 1049], the IC50 in experiment [1] was above 8.8 µM; in experiment [2], 0.782 to 4.69 µM; in [3], above 8.8 µM; in [4], below 0.782 µM; in experiment [5], above 8.8 µM; in experiment [6], above 8.8 µM. For the same compound, the IC50 in experiment [7] is 0.782 to 4.69 µM; in experiment [8], above 8.8 µM; in [9] it was 0.782 to 4.69 µM; in [10], above 8.8 µM.
For the compound `CN(c1cccc(Cl)c1)c1ncnc(Nc2ccc3cn[nH]c3c2)n1` [Compound 718], the IC50 in experiment [1] is below 1.14 µM; in experiment [2], 6.82 to 9.95 µM; in [3] it was above 12.8 µM; in experiment [4] it was above 12.8 µM; in experiment [5], above 12.8 µM; in [6] it was 9.95 to 12.8 µM. Besides, the IC50 in experiment [7] was above 12.8 µM; in [8], above 12.8 µM; in experiment [9], above 12.8 µM; in experiment [10] it was 9.95 to 12.8 µM.
For `Brc1cccc(Nc2ncnc(Nc3ccc4c(cnn4Cc4ccccc4)c3)n2)c1` [Compound 554], the IC50 in [1] was below 0.847 µM; in experiment [2], 7.41 to 9.53 µM; in experiment [3], above 9.53 µM; in [4], 0.847 to 5.08 µM; in experiment [5] it was above 9.53 µM; in [6] it was 7.41 to 9.53 µM. The IC50 fell in the range of 5.08 to 7.41 µM in experiment [7], 5.08 to 7.41 µM in experiment [8], 5.08 to 7.41 µM in [9] and 7.41 to 9.53 µM in [10].
